Source: the supplement of paper PMC11061612

Legend:
Experiment in all cases: combination Emax (second highest fraction inhibited in the dose matrix, 72 h); higher = more inhibition; extreme values may be limits of the assay
[1] = test system: RC-K8 (B-Cell Non-Hodgkin's Lymphoma)
Outline: (§1)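 Bliss excess equals the observed combination effect minus the expected value EA + EB − EA·EB, where EA and EB are the effects of each agent alone. Combination Emax is the second-highest inhibition within the matrix. Inhibition was scaled from CellTiter-Glo 2.0 luminescence, with 0 set by vehicle wells and 1 by blank wells, after 72 hours of two-drug dosing of cells plated in 1536-well plates.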

[2] = test system: CCRF-CEM (T-Lymphoblastic Leukemia)
Outline: as §1

[3] = test system: HCC1806 (Breast Carcinoma)
Outline: as §1

[4] = test system: TCCSUP (Bladder Carcinoma)
Outline: as §1

[5] = test system: ME-1 (Acute Myeloid Leukemia)
Outline: as §1

[6] = test system: HCC-78 (Lung Adenocarcinoma)
Outline: as §1

[7] = test system: DoTc2-4510 (Cervical Carcinoma)
Outline: as §1

[8] = test system: KP-1N (Pancreatic Carcinoma)
Outline: as §1

NB10 (Neuroblastoma) = test system: NB10 (Neuroblastoma)
Outline: as §1

[9] = test system: LU-135 (Small Cell Lung Carcinoma)
Outline: as §1

42-MG-BA (Glioblastoma) = test system: 42-MG-BA (Glioblastoma)
Outline: as §1

[10] = test system: TE-15 (Esophageal Squamous Cell Carcinoma)
Outline: as §1

T98G (Glioblastoma) = test system: T98G (Glioblastoma)
Outline: as §1

[11] = test system: Daoy (Other Solid Carcinomas)
Outline: as §1

[12] = test system: COLO-205 (Colorectal Carcinoma)
Outline: as §1

ES4 (Ewing's Sarcoma) = test system: ES4 (Ewing's Sarcoma)
Outline: as §1

[13] = test system: Ramos-2G6-4C10 (Burkitt's Lymphoma)
Outline: as §1

[14] = test system: TE-9 (Esophageal Squamous Cell Carcinoma)
Outline: as §1

[15] = test system: Calu-3 (Lung Adenocarcinoma)
Outline: as §1

[16] = test system: NCI-H2085 (Non-Small Cell Lung Carcinoma)
Outline: as §1

Row | SMILES | combination Emax [1] | combination Emax [2] | combination Emax [3] | combination Emax [4] | combination Emax [5] | combination Emax [6] | combination Emax [7] | combination Emax [8] | combination Emax (NB10 (Neuroblastoma)) | combination Emax [9] | combination Emax (42-MG-BA (Glioblastoma)) | combination Emax [10] | combination Emax (T98G (Glioblastoma)) | combination Emax [11] | combination Emax [12] | combination Emax (ES4 (Ewing's Sarcoma)) | combination Emax [13] | combination Emax [14] | combination Emax [15] | combination Emax [16]
1 | Cc1nc(Nc2ncc(C(=O)Nc3c(C)cccc3Cl)s2)cc(N2CCN(CCO)CC2)n1 [Dasatinib] + CC(=O)Nc1cccc(-n2c(=O)n(C3CC3)c(=O)c3c(Nc4ccc(I)cc4F)n(C)c(=O)c(C)c32)c1 [Trametinib] (first compound max 2 µM, 7x7, partner max 1 µM) | 0.124 | 0.149 | 0.624 | 0.266 | 0.375 | 0.347 | 0.469 | 0.478 | 0.658 | 0.0891 | 0.971 | 0.782 | 0.744 | 0.41 | 0.728 | 0.215 | 0.238 | 0.271 | 0.619 | 0.82
2 | COc1cc2ncnc(Nc3ccc(F)c(Cl)c3)c2cc1OCCCN1CCOCC1 [Gefitinib] + CC(C)n1c(=O)n(C)c2cnc3cc(F)c(-c4ccc(OCCCN5CCCCC5)nc4)cc3c21 [AZD1390] (first compound max 10 µM, 7x7, partner max 0.3 µM) | 0.105 | 0.054 | 0.436 | 0.114 | 0.199 | 0.133 | 0.297 | 0.004 | 0.0716 | 0.129 | 0.32 | 0.762 | 0.12 | 0.0924 | 0.135 | 0.3 | 0.148 | 0.0944 | 0.738 | 0.225
3 | CS(=O)(=O)CCNCc1ccc(-c2ccc3ncnc(Nc4ccc(OCc5cccc(F)c5)c(Cl)c4)c3c2)o1 [Lapatinib] + C[C@@H](Oc1cc(-c2cnn(C3CCNCC3)c2)cnc1N)c1c(Cl)ccc(F)c1Cl [Crizotinib] (first compound max 10 µM, 7x7, partner max 10 µM) | 0.622 | 0.881 | 0.95 | 0.508 | 0.194 | 0.882 | 0.942 | 0.809 | 0.796 | 0.94 | 0.767 | 0.906 | 0.949 | 0.934 | 0.939 | 0.928 | 0.898 | 0.552 | 0.931 | 0.673
4 | CC(=O)c1c(C)c2cnc(Nc3ccc(N4CCNCC4)cn3)nc2n(C2CCCC2)c1=O [Palbociclib] + CC1(C)CCC(CN2CCN(c3ccc(C(=O)NS(=O)(=O)c4ccc(NCC5CCOCC5)c([N+](=O)[O-])c4)c(Oc4cnc5[nH]ccc5c4)c3)CC2)=C(c2ccc(Cl)cc2)C1 [Venetoclax] (first compound max 10 µM, 7x7, partner max 1 µM) | 0.506 | 0.67 | 0.268 | 0.152 | 1 | 0.144 | 0.0297 | 0.212 | 0.293 | 0.445 | 0.27 | 0.343 | 0.355 | 0.218 | 0.492 | 0.21 | 0.355 | 0.114 | 0.0931 | 0.167
5 | CC(=O)c1c(C)c2cnc(Nc3ccc(N4CCNCC4)cn3)nc2n(C2CCCC2)c1=O [Palbociclib] + Cc1c2c(nn1C)CSCc1cc(n(C)n1)CSc1cc(c3ccccc3c1)OCCCc1c(C(=O)O)n(C)c3c-2c(Cl)ccc13 [AZD5991] (first compound max 10 µM, 7x7, partner max 1 µM) | 0.316 | 0.732 | 0.383 | 0.173 | 0.693 | 0.251 | 0.215 | 0.212 | 0.369 | 0.388 | 0.391 | 0.435 | 0.4 | 0.21 | 0.497 | 0.244 | 0.986 | 0.14 | 0.219 | 0.167
6 | CC(=O)c1c(C)c2cnc(Nc3ccc(N4CCNCC4)cn3)nc2n(C2CCCC2)c1=O [Palbociclib] + Cn1cnc2c(F)c(Nc3ccc(Br)cc3Cl)c(C(=O)NOCCO)cc21 [Selumetinib] (first compound max 10 µM, 7x7, partner max 10 µM) | 0.459 | 0.624 | 0.414 | 0.187 | 0.428 | 0.168 | 0.117 | 0.196 | 0.579 | 0.352 | 0.232 | 0.657 | 0.374 | 0.18 | 0.788 | 0.224 | 0.336 | 0.201 | 0.149 | 0.231
7 | COc1cccc(OCCCN)c1-c1cc(Nc2cnc(C#N)cn2)n[nH]1 [Prexasertib] + CCc1c2c(nc3ccc(O)cc13)-c1cc3c(c(=O)n1C2)COC(=O)[C@]3(O)CC [SN-38] (first compound max 1 µM, 7x7, partner max 0.3 µM) | 1 | 1 | 0.996 | 0.934 | 0.627 | 0.947 | 0.964 | 0.64 | 0.865 | 0.833 | 1 | 0.921 | 0.904 | 0.999 | 0.938 | 0.878 | 1 | 0.8 | 0.549 | 0.86
